Source: patent publication US20250248392A1, “LETHAL BAIT FOR PEST ANT CONTROL” (priority 2024, published 2025)

Columns and labels:
Format in all cases: in vivo
[1] = tested on: Myrmica rubra fire ants; assay: Exp. 17: choice between lethal and non-lethal liquid bait, survival of laboratory colonies; settings: boric acid as lethal agent in baits; conclusion from Exps. 17-19 (M. rubra, F. oreas, C. modoc)
[2] = tested on: Lasius niger black garden ants; assay: Exp. 15: consumption of liquid food baits by field colonies; settings: Exp. 15: EAAs 5.55%, sucrose 5.55%, EAAs 1.0% + sucrose 4.55% w/v, water
Description: In Experiments 15 and 16, the bait of EAAs and sucrose was effective for diverse ant taxa including black garden ants and thatching ants, as shown in FIG. 7. In Experiment 15 (n=10), colonies of Lasius niger black garden ants were located at the base of trees on the Burnaby campus of Simon Fraser University, and tubes were affixed next to each other on tree trunks alongside the ants' foraging trails. In Experiment 16 (n=10), colonies of Formica aserva thatching ants were located along the Mamquam forest service road (see above), and tubes were placed on top of tree stumps that contained an ant colony. For both experiments, evaporation control tubes were placed in Tupperware containers (15 cm×9 cm×10 cm) with a mesh-covered hole in the lid, and containers were set near ant colonies. Each colony was offered four Eppendorf tubes that contained: (1) EAAs (5.55% w/v); (2) sucrose (5.55% w/v), (3) EAAs (1.0% w/v)+sucrose (4.55% w/v); and (4) plain water (control).

[3] = tested on: Myrmica rubra field colonies; assay: Exp. 14: seasonal consumption of liquid food baits by field colonies
Description: (§1) Tubes were spaced around the entrance of C. modoc and M. rubra nests, with tube positions randomly assigned in each replicate.
(§2) For the C. modoc experiment (Exp. 13), Eppendorf tubes were affixed 5 cm apart to trees or logs housing a colony as shown, for example, in FIG. 6b. For the M. rubra experiment (Exp. 14), tubes were placed 5 cm apart around the entrance of subterranean nests. Evaporation control tubes were placed in Tupperware containers (15 cm×9 cm×10 cm) with a mesh-covered hole in the lid, and containers were set near ant nests. Replicates with M. rubra colonies (n=10; repeated on 7 dates) were run for 4 hours, and replicates with C. modoc colonies (n=13; repeated on 6 dates) were run for 24 hours. After replicates were terminated, tubes were capped, transported to the laboratory in a cooler, and weighed. All field studies were run on warm and sunny days with observable ant activity.
(§3) Colonies of C. modoc were located along the Mamquam forest service road (near Squamish, BC, Canada) and colonies of M. rubra were located at Inter River Park (District of North Vancouver, BC, Canada). […] Throughout the summer season, nutrient consumption by colonies was measured in circa 3-week intervals on six dates for C. modoc colonies from Jun. 18, 2021 to Sep. 7, 2021, and on seven dates for M. rubra colonies from May 21, 2021 to Sep. 13, 2021.

[4] = tested on: Camponotus modoc field colonies; assay: Exp. 13: seasonal consumption of liquid food baits by field colonies; settings: Exp. 13, Jun. 18 to Sep. 7, 2021
Description: as §1, §2, §3

[5] = tested on: Myrmica rubra fire ants; assay: Laboratory consumption of liquid nutrient baits (Exps. 2, 4, 6, 8, 10, 12)
Description: (§4) Liquid nutrient solutions for experiments (see Table 1 for nutrient concentrations) were prepared by weighing dry ingredients (TR 204 scale; Denver Instrument Company, CO, USA), and then mixing them in distilled water. Aliquots (1 mL) of these solutions were pipetted into 1.5-mL Eppendorf tubes (Thermo Fisher Scientific, Waltham, MA 02451, U.S.A.) which were stored in a freezer (−4° C.) until needed.
(§5) Prior to experiments, Eppendorf tubes were removed from the freezer to thaw, and then vortexed to dissolve all solutes. Then, a 1-cm long piece of cotton dental wick (Richmond Dental & Medical, Charlotte, NC 28205, USA) was inserted into each tube, thus allowing ants to ingest the liquid without spillage. Also prior to bioassays, colonies were deprived of sugar water and food for 24 hours and 4 hours, respectively (the maximum time ants could endure without these foods before they attempted to chew their way out of containers). […]
(§6) Colonies of C. modoc (Exp. 1) and M. rubra (Exp. 2) were offered three choices: (1) 11 EAAs+10 non-EAAs (1.05% total w/v) in water; (2) 10 non-EAAs (0.5% w/v) in water; and (3) a water control. […] Data were analyzed using generalized linear models (GLM) and generalized linear mixed models (GLMM). For all models, the significance (p 0.05) of each predictor was assessed using a likelihood ratio test (LRT), and Tukey adjusted pairwise comparisons between means. […]

[6] = tested on: Camponotus modoc carpenter ants; assay: Laboratory consumption of liquid nutrient baits (Exps. 1, 3, 5, 7, 9, 11); settings: Exps. 5 and 7: single nutrients and ternary blend, unadjusted and adjusted concentrations
Description: as §4, §5, §6

OB(O)O [boric acid]
aversion to bait consumption [1]: not aversive to bait consumption

OC[C@H]1O[C@@](CO)(O[C@H]2O[C@H](CO)[C@@H](O)[C@H](O)[C@H]2O)[C@@H](O)[C@@H]1O [sucrose, D-sucrose]
consumption by field colonies [2]: equally consumed
change of consumption over the season ([3]; Exp. 14, May 21 to Sep. 13, 2021): declined over time
consumption by field colonies ([3]; Exp. 14: EAA 5.55%, sucrose 5.55%, EAA 1.0% + sucrose 4.55% w/v, water, seven dates, 4 hours): generally consumed more sucrose
change of consumption over the season [4]: decreased over time
consumption by colonies ([5]; Exp. 6: unadjusted concentrations (urea 2.5%, EAAs 0.55%, sucrose 2.5% w/v)): preferentially consumed
consumption by colonies ([5]; Exp. 8: adjusted concentrations (5.55% w/v)): preferentially consumed

NC(N)=O [urea]
consumption by colonies [6]: preferentially consumed
